Source: patent US9717247B2, “Synergistic fungicidal active combinations” (BAYER CROPSCIENCE AG, priority 2003, dated 2017)

Experiments:
[1] = system: Pyrenophora teres; assay: Pyrenophora teres test (barley)/curative; conditions: in Hordeum vulgare, 288 h, read-out: Efficacy in % found
Protocol: Pyrenophora teres Test (Barley)/Curative • Solvent: 50 parts by weight of N,N-dimethylacetamide • Emulsifier: 1 part by weight of alkylaryl polyglycol ether
To test for curative activity, young plants are sprayed with a conidia suspension of Pyrenophora teres. The plants remain in an incubation cabinet at 20° C. and 100% relative atmospheric humidity for 48 hours.
The plants are placed in a greenhouse at a temperature of about 20° C. and a relative atmospheric humidity of about 80%.
Evaluation is carried out 12 days after the inoculation.

[2] = system: Erysiphe graminis f.sp. hordei; assay: Erysiphe test (barley)/protective; format: in vivo; conditions: application rate 12.5 g/ha, protective, evaluation 6 days after inoculation
[3] = system: Erysiphe graminis f.sp. hordei; assay: Erysiphe test (barley)/curative; format: in vivo; conditions: application rate 25 g/ha, curative, evaluation 6 days after inoculation
[4] = system: Leptosphaeria nodorum; assay: Leptosphaeria nodorum test (wheat)/curative; conditions: application rate 25 g/ha, curative, evaluation 8 days after inoculation
Protocol: Leptosphaeria nodorum Test (Wheat)/Curative • Solvent: 50 parts by weight of N,N-dimethylacetamide • Emulsifier: 1 part by weight of alkylaryl polyglycol ether
To test for curative activity, young plants are sprayed with a conidia suspension of Leptosphaeria nodorum.
The plants are placed in a greenhouse at a temperature of about 15° C. and a relative atmospheric humidity of about 80%.
(§1) Evaluation is carried out 8 days after the inoculation.

[5] = system: Sphaerotheca fuliginea; assay: Sphaerotheca fuliginea test (cucumber)/protective; format: in vivo; conditions: protective, 7 days after inoculation; for pest or weed control at 1 g/ha: application rate 1 g/ha; for pest or weed control at 2 g/ha: application rate 2 g/ha
[6] = system: Leptosphaeria nodorum; assay: Leptosphaeria nodorum test (wheat)/protective; format: in vivo; conditions: application rate 25 g/ha, protective, evaluation 11 days after inoculation
[7] = system: Alternaria solani; assay: Alternaria solani test (tomato)/protective; format: in vivo; conditions: protective, 3 days after inoculation
[8] = system: Puccinia recondita; assay: Puccinia recondita test (wheat)/curative; conditions: application rate 62.5 g/ha, curative, evaluation 8 days after inoculation
Protocol: Puccinia recondita Test (Wheat)/Curative • Solvent: 50 parts by weight of N,N-dimethylacetamide • Emulsifier: 1 part by weight of alkylaryl polyglycol ether
To test for curative activity, young plants are sprayed with a conidia suspension of Puccinia recondita. The plants remain in an incubation cabinet at 20° C. and 100% relative atmospheric humidity for 48 hours.
The plants are placed in a greenhouse at a temperature of about 20° C. and a relative atmospheric humidity of about 80% to promote the development of rust pustules.
as §1

[9] = system: Phytophthora infestans; conditions: in vivo
[10] = system: Botrytis cinerea; assay: Botrytis cinerea test (in vitro)/microtitre plates; format: cell-based; conditions: 3 ppm, PDB, 7 days of incubation
[11] = system: Rhizoctonia solani; assay: Rhizoctonia solani test (in vitro)/microtitre plates; format: cell-based; conditions: PDB, 5 days of incubation
Protocol: Rhizoctonia solani Test (In Vitro)/Microtitre Plates The microtest is carried out in microtitre plates using potato dextrose broth (PDB) as liquid test medium. The active compounds are used as technical grade a.i., dissolved in acetone. For inoculation, a mycelium suspension of Rhizoctonia solani is used. After 5 days of incubation in the dark and with shaking (10 Hz) for each filled cavity of the microtitre plates, the light transmittance is determined with the aid of a spectrophotometer.

[12] = system: Botrytis cinerea; assay: Botrytis cinerea test (bean)/protective; conditions: protective, 2 days after inoculation
Protocol: After the spray coating has dried on, 2 small pieces of agar colonized by Botrytis cinerea are placed onto each leaf. The inoculated plants are placed in a darkened chamber at about 20° C. and 100% relative atmospheric humidity.
The size of the infected areas on the leaves is evaluated 2 days after the inoculation.

[13] = system: Pyricularia oryzae; format: cell-based; conditions: 3 ppm; in vitro, PDB, 3 days of incubation
[14] = system: Plasmopara viticola; assay: Plasmopara viticola test (grapevine)/protective; format: in vivo; conditions: protective, 6 days after inoculation
[15] = system: Gibberella zeae; format: cell-based; conditions: 0.3 ppm; in vitro, PDB, 3 days of incubation
[16] = Podosphaera fuliginea, 168 h, read-out: Efficacy in % found
[17] = Podosphaera fuliginea, 168 h, application rate 10 g/ha, read-out: Efficacy in % found

N#Cc1ccccc1NC(=O)c1snc(Cl)c1Cl [3,4-dichloro-N-(2-cyanophenyl)isothiazole-5-carboxamide]
pest or weed control at 125 g/ha [1]: 43%

Cc1nn(C)c(F)c1C(=O)Nc1ccccc1C(C)CC(C)(C)C (centres unmarked) [(1-8), 5-fluoro-1,3-dimethyl-N-[2-(1,3,3-trimethylbutyl)phenyl]-1H-pyrazole-4-carboxamide]
pest or weed control at 25 g/ha [1]: 14% | Efficacy in % found [2]: 11% | Efficacy in % found [3]: 0%

CC(C)CC(C)c1ccccc1NC(=O)c1ccccc1I (centres unmarked) [(1-13), N-[2-(1,3-dimethylbutyl)phenyl]-2-iodobenzamide]
Efficacy in % found [4]: 0% | pest or weed control at 1 g/ha [5, 16]: 10% | Efficacy in % found [6]: 13% | Efficacy in % found [2]: 0% | Efficacy in % found ([7]; application rate 2 g/ha): 0%

CC(C)CC(C)c1ccccc1NC(=O)c1ccccc1C(F)(F)F (centres unmarked) [(1-15), N-[2-(1,3-dimethylbutyl)phenyl]-2-(trifluoromethyl)benzamide]
pest or weed control at 25 g/ha [1]: 14% | Efficacy in % found [2]: 0%

CO/C=C(/C(=O)OC)c1ccccc1Oc1cc(Oc2ccccc2C#N)ncn1 [(2-1) azoxystrobin, azoxystrobin]
pest or weed control at 4 g/ha ([5]; Podosphaera fuliginea, 168 h, application rate 4 g/ha, read-out: Efficacy in % found): 50%

CO/N=C(/C1=NOCCO1)c1ccccc1Oc1ncnc(Oc2ccccc2Cl)c1F [(2-2) fluoxastrobin, fluoxastrobin]
pest or weed control at 25 g/ha [1]: 0% | Efficacy in % found [4]: 29% | pest or weed control at 2 g/ha [5, 16]: 37%

CNC(=O)/C(=N/OC)c1ccccc1Oc1ncnc(Oc2cccc(Cl)c2C)c1F [(2-3), (2E)-2-(2-{[6-(3-chloro-2-methylphenoxy)-5-fluoro-4-pyrimidinyl]oxy}phenyl)-2-(methoxyimino)-N-methylethanamide]
Efficacy in % found ([7]; application rate 1 g/ha): 39% | Efficacy in % found ([7]; application rate 2 g/ha): 32%

CO/N=C(/C(=O)OC)c1ccccc1CO/N=C(\C)c1cccc(C(F)(F)F)c1 [(2-4) trifloxystrobin, trifloxystrobin]
pest or weed control at 1 g/ha [5, 16]: 20% | Efficacy in % found [2]: 78%

CO/N=C(/C(=O)OC)c1ccccc1COc1ccccc1C [(2-9) kresoxim-methyl, kresoxim-methyl]
Efficacy in % found [8]: 0%

CO/C=C(/C(=O)OC)c1ccccc1COc1cccc(C(F)(F)F)n1 [(2-11) picoxystrobin, picoxystrobin]
pest or weed control at 125 g/ha [1]: 86%

COC(=O)N(OC)c1ccccc1COc1ccn(-c2ccc(Cl)cc2)n1 [(2-12) pyraclostrobin, pyraclostrobin]
Efficacy in % found ([7]; application rate 2 g/ha): 37%

CCCC1COC(Cn2cncn2)(c2ccc(Cl)cc2Cl)O1 (centres unmarked) [(3-3) propiconazole, propiconazole]
pest or weed control at 1 g/ha [5, 16]: 37%

Fc1ccc(C2(Cn3cncn3)OC2c2ccccc2Cl)cc1 (centres unmarked) [(3-12) epoxyconazole, epoxiconazole]
pest or weed control at 125 g/ha [1]: 57%

OC(Cc1ccccc1Cl)(Cn1nc[nH]c1=S)C1(Cl)CC1 (centres unmarked) [(3-15) prothioconazole, prothioconazole]
pest or weed control at 1 g/ha [5, 16]: 43% | Efficacy in % found [6]: 13% | Efficacy in % found [2]: 67% | Efficacy in % found [3]: 22%

CC(C)(C)C(O)(CCc1ccc(Cl)cc1)Cn1cncn1 (centres unmarked) [(3-17) tebuconazole, tebuconazole]
pest or weed control at 25 g/ha [1]: 29% | Efficacy in % found [4]: 29% | pest or weed control at 2 g/ha [5, 16]: 10%

CC(C)(C)C(O)C(Oc1ccc(-c2ccccc2)cc1)n1cncn1 (centres unmarked) [(3-21) bitertanol, bitertanol]
pest or weed control at 2 g/ha [5, 16]: 20%

Cc1ccc(N(SC(F)(Cl)Cl)S(=O)(=O)N(C)C)cc1 [(4-2) tolylfluanid, tolylfluanid]
pest or weed control at 10 g/ha [5, 17]: 0%

Cc1ccc(C(C)NC(=O)[C@H](NC(=O)OC(C)C)C(C)C)cc1 (some centres unmarked) [(5-1) iprovalicarb, iprovalicarb]
Efficacy in % found [9]: 64%

CC(C)OC(=O)N[C@H](C(=O)N[C@H](C)c1nc2ccc(F)cc2s1)C(C)C [(5-3) benthiavalicarb, benthiavalicarb]
Efficacy in % found [9]: 50%

O=C(Nc1ccccc1-c1ccc(Cl)cc1)c1cccnc1Cl [(6-2) boscalid, boscalid]
pest or weed control at 1 g/ha [5, 16]: 10%

CC1(C(=O)Nc2ccc(O)c(Cl)c2Cl)CCCCC1 [(6-6) fenhexamid, fenhexamid]
pest or weed control at 10 g/ha [5, 17]: 0%

CCC1(C(=O)NC(C)c2ccc(Cl)cc2)C(C)C1(Cl)Cl (centres unmarked) [(6-7) carpropamid, carpropamid]
pest or weed control at 125 g/ha [1]: 14%

CC(C)CC(C)c1sccc1NC(=O)c1cn(C)nc1C(F)(F)F (centres unmarked) [(6-14) penthiopyrad, penthiopyrad]
Efficacy in % found [8]: 44%

COCC(=O)N(c1c(C)cccc1C)[C@H](C)C(=O)OC [(8-4) metalaxyl-M, metalaxyl-M]
Efficacy in % found ([7]; application rate 2 g/ha): 0%

COC(=O)[C@@H](C)N(C(=O)Cc1ccccc1)c1c(C)cccc1C [(8-5) benalaxyl-M, benalaxyl-M]
Efficacy in % found ([7]; application rate 2 g/ha): 0%

Cc1cc(C)nc(Nc2ccccc2)n1 [(9-3) pyrimethanil, pyrimethanil]
pest or weed control at 10 g/ha [5, 17]: 0%

COC(=O)Nc1nc2ccccc2[nH]1 [(10-3) carbendazim, carbendazim]
Efficacy in % found [10]: 86%

CCCOC(=O)NCCCN(C)C [(11-2) propamocarb, propamocarb]
Efficacy in % found ([11]; 1 ppm): 7%

CC(C)NC(=O)N1CC(=O)N(c2cc(Cl)cc(Cl)c2)C1=O [(12-4) iprodione, iprodione]
Efficacy in % found ([12]; application rate 5 g/ha): 13% | Efficacy in % found ([12]; application rate 10 g/ha): 54% | Efficacy in % found ([12]; application rate 20 g/ha): 47% | pest or weed control at 10 g/ha [5, 17]: 0%

CCCN(CCOc1c(Cl)cc(Cl)cc1Cl)C(=O)n1ccnc1 [(14-2) prochloraz, prochloraz]
Efficacy in % found [8]: 0%

[O-][n+]1nc(-n2ccnc2)nc2ccc(Cl)cc21 [(14-3) triazoxide, triazoxide]
Efficacy in % found [13]: 3%

N#Cc1c[nH]cc1-c1cccc2c1OC(F)(F)O2 [(16-2) fludioxonil, fludioxonil]
Efficacy in % found [8]: 0%

CCO[PH](=O)O [(17-1) fosetyl-A1, fosetyl-A1]
Efficacy in % found ([14]; application rate 500 g/ha): 33% | Efficacy in % found ([14]; application rate 1000 g/ha): 58%

N#Cc1c(Cl)c(Cl)c(Cl)c(C#N)c1Cl [(19-2) chlorothalonil, chlorothalonil]
pest or weed control at 10 g/ha [5, 17]: 0%

CSC1=N[C@@](C)(c2ccccc2)C(=O)N1Nc1ccccc1 [(19-3) fenamidone]
Efficacy in % found [15]: 15%

CCCN(CC)CC1COC2(CCC(C(C)(C)C)CC2)O1 (centres unmarked) [(19-10) spiroxamine, spiroxamine]
pest or weed control at 10 g/ha [5, 17]: 0% | Efficacy in % found [8]: 0%

CSC1=N[C@@](C)(c2ccccc2)C(=O)N1Nc1ccccc1 [(19-13) fenamidone, fenamidone]
Efficacy in % found [9]: 47%

O=C(Nc1ccccc1)N(Cc1ccc(Cl)cc1)C1CCCC1 [(20-1) pencycuron, pencycuron]
Efficacy in % found ([11]; 1 ppm): 54%

C[C@H](Nc1c(-c2c(F)cc(F)cc2F)c(Cl)nc2ncnn12)C(F)(F)F [(22-1), 5-chloro-N—[(IS)-2,2,2-trifluoro-1-methylethyl]-6-(2,4,6-trifluorophenyl)[1,2,4]triazolo-[1,5-a]pyrimidine-7-amine]
pest or weed control at 1 g/ha [5, 16]: 22%

CC(C)[C@@H](C)Nc1c(-c2c(F)cc(F)cc2F)c(Cl)nc2ncnn12 [(22-2), 5-chloro-N—[(IR)-1,2-dimethylpropyl]-6-(2,4,6-trifluorophenyl)[1,2,4]triazolo[1,5-a]-pyrimidine-7-amine]
pest or weed control at 1 g/ha [5, 16]: 22%

Cn1cc(C(=O)Nc2ccc(F)cc2-c2ccc(Cl)c(Cl)c2)c(C(F)F)n1 [(24-1), N-(3′,4′-dichloro-5-fluoro-1,1′-biphenyl-2-yl)-3-(difluoromethyl)-1-methyl-1H-pyrazole-4-carboxamide]
Efficacy in % found ([11]; 0.003 ppm): 50% | Efficacy in % found [9]: 0%

mancozeb [(7-1) mancozeb]
Efficacy in % found ([5]; application rate 10 g/ha): 0%

propineb [(7-4) propineb]
Efficacy in % found ([5]; application rate 5 g/ha): 0%
